Source: patent publication US20220089602A1, “COMPOUNDS THAT INDUCE FERROPTIC CELL DEATH” (The Board of Trustees of the University of Illinois, priority 2019, published 2022)
“Also recorded” adds a separate entry of the source.

Legend:
[1] = tested on: HCT 116 cells; experiment: In-gel fluorescence proteome labeling; type: cell-based; conditions: 30 min dose-dependent treatment
Description: Cells were harvested by centrifugation (500×g, 3 min), washed with PBS, and resuspended in RIPA lysis buffer (50 mM Tris, 150 mM NaCl, 1% Triton X-100, 0.5% sodium deoxycholate, 0.1% SDS, pH=7.4) containing 1× protease inhibitor cocktail on ice. Protein concentration was determined by the Bradford assay and lysates were stored at −20° C. until further use. Samples were resolved in a 4-20% SDS-PAGE gel (Bio-Rad) at 120 V for 70 min. After PBS washes, each gel was scanned for fluorescence signal using a Molecular Dynamics Typhoon 9400 Multilaser Scanner at the Proteomics Center at UIUC (excitation at 526 nm, green laser, high sensitivity, 530 pmt). Gels were then treated with Coomassie Blue stain (Imperial Stain, ThermoFisher) via shaking for 45 min to stain for the total protein content. Upon proteome labeling, gels were destained for 15 min-overnight on MilliQ H2O followed by imaging in a Gel Dox XR+ from Bio-Rad (ex. 470 nm, UV High filter).

[2] = tested on: HCT 116 cells; experiment: Protection studies against ferroptocide-induced cell death, AV/PI; type: cell-based; conditions: pre-treatment with protecting agent
Description: Cells were incubated for the appropriate times and harvested for flow cytometry analysis. Cell pellets were resuspended in binding buffer (10 mM HEPES, pH 7.4, 140 mM NaCl, 2.5 mM CaCl2) containing 2 μg/mL propidium iodide and 5 μL/mL Annexin V-FITC conjugate antibody and analyzed for cell viability after gating for forward and side scattering. Ten thousand events were collected per sample in BD LSR II Flow Cytometer (BD Bioscience) and FCS express V6, De Novo software was used to perform experimental analysis.

[3] = tested on: A549 cells; experiment: as above; type: cell-based; conditions: pre-treatment with protecting agent
Description: (§1) ES-2, HCT 116, Mia PaCa-2, A549, and 4T1 cells (1×10^5 cells/mL) were plated overnight in 12 well plates, prior to addition of compounds. For protection studies, samples were pre-treated with each protecting agent such as 25 μM Q-VD-OPh, 250 μM trolox, 2 μM ferrostatin-1, 5 mM NAC-1 (neutralized pH), or 100 μM deferoxamine (DFO) for two hours or 1 hr (NAC-1) before compound addition. Cells were incubated for the appropriate times and harvested for flow cytometry analysis. Cell pellets were resuspended in binding buffer (10 mM HEPES, pH 7.4, 140 mM NaCl, 2.5 mM CaCl2) containing 2 μg/mL propidium iodide and 5 μL/mL Annexin V-FITC conjugate antibody and analyzed for cell viability after gating for forward and side scattering. Ten thousand events were collected per sample in BD LSR II Flow Cytometer (BD Bioscience) and FCS express V6, De Novo software was used to perform experimental analysis.

[4] = tested on: ES-2 cells; experiment: as above; type: cell-based; conditions: pre-treatment with protecting agent
Description: as §1

[5] = tested on: 4T1 cells; experiment: as above; type: cell-based, murine; conditions: pre-treatment with protecting agent
Description: as §1

[6] = tested on: ES-2 cell line; experiment: 72 hr cell viability assay (Alamar Blue), dose response IC50; type: cell-based; conditions: Homo sapiens; 72 hr, ES-2 cell line, Alamar Blue fluorescence, mean ± s.e.m., n ≥ 3
Description: 40 μL of media was added to each well of a 384-well tissue culture-treated plate. 3×100 nL of compound in DMSO was then pin-transferred from compound storage plates (2 mM stocks) into media-containing wells using the Platemate Plus at the UIUC High Throughput Screening Facility. A 100,000 cells/mL suspension of ES-2 cells was prepared, and 10 μL was added to each well for a final concentration of 1000 cells/well. Doxorubicin (100 μM final) was used as a positive control. Plates were sealed with gas-permeable seals and incubated at 37° C. for 72 h. After incubation, 5 μL of Alamar blue (440 μM resazurin in sterile PBS) was added and allowed to incubate for 3-4 h, until visible color change occurred. Fluorescence was measured in a Molecular Devices SpectraMax 3 (excitation=555 nm, emission=585 nm, emission cutoff=570 nm).
To a 384-well plate, 40 μL of 1.25× compound dilution or 1.25% DMSO-containing media was added (final volume of 1% DMSO). Concentrations of compounds tested were 100 μM to 100 nM. On each plate at least 3 technical replicates per compound were performed. Next, 10 μL of a 100,000 cells/mL suspension was added to each well, yielding a final concentration of 1,000 cells/well. To three wells in column 2 was added 1 μL of 10 mM doxorubicin (final concentration of 200 μM) as positive control of cell death. Plates were sealed with gas-permeable seals and incubated at 37° C. for 72 h. At that time, 5 μL of Alamar blue (440 μM resazurin in sterile PBS) was added and plates were incubated for 3-4 hours. Fluorescence was read on a Molecular Devices SpectraMax 3 (excitation=555 nm, emission=585 nm, emission cutoff=570 nm). Wells were normalized to the average of untreated wells (0% cell death). The data were plotted as compound concentration versus percent dead cells and fitted to a logistic-dose response curve using OriginPro 2015 (OriginLab, Northampton, Mass.). The data were generated in triplicate, and IC50 values are reported as the average of three separate experiments along with standard error of the mean.

[7] = tested on: red blood cells; experiment: Hemolysis assay; type: cell-based, human; conditions: 2 hr treatment with 333 μM
Description: Whole human blood in citrate phosphate dextrose was obtained from Bioreclamation LLC, stored at 4° C. and used before expiration date. 100 μL of whole blood was combined with 500 μL saline (0.9% NaCl) and centrifuged for 5 min at 300×g. The supernatant was carefully removed from the erythrocyte pellet and the liquid was discarded. Washed pellet 3× in 500 μL saline. The erythrocyte pellet was resuspended in 800 μL of Red Blood Cell Buffer (10 mM Na2HPO4, 150 mM NaCl, 1 mM MgCl2, pH 7.4). To a 0.5 mL eppendorf tube or a PCR plate was added 1.0 μL of 30× compound in DMSO and 19 μL RBC Buffer. For negative controls, 1.0 μL DMSO was combined with 19 μL RBC buffer. For positive controls, either 20 μL MilliQ H2O or 1.0 μL 30% Triton X-100 were combined with 19 μL RBC Buffer. Tubes or plates were briefly centrifuged. Next, 10 μL of washed erythrocyte suspension was added to each tube, then sealed. After incubation at 37° C. for 2 h, samples were centrifuged for 5 min at 300×g, and 20 μL of supernatant was carefully removed and transferred to wells of a clear flat-bottomed 384-well plate. Absorbance was measured at 540 nm. The data were plotted as compound concentration versus percent hemolysis, and fitted to OriginPro (OriginLab, Northampton, Mass.).

## CC1=CC(C)=[N+]2C1=Cc1ccc(CCC(=O)NCCCn3cc(CN4C(=O)C5CC=C([C@@H]6C[C@@H](OC(=O)CI)[C@]7(C)[C@H](C)CC[C@]8(C[C@H](O)C(=O)[C@]87O)[C@H]6C)CC5C4=O)nn3)n1[B-]2(F)F (stereo partly drawn) [Compound P31]
[1]
  proteome labeling selectivity: Promiscuous bioactivity

## CC(=O)N[C@@H](CS)C(=O)O [NAC-1, N-acteyl cysteine]
[2]
  protection against ferroptocide-induced cell death: protection from ferroptocide- and TBHP-induced cell death
[3]
  protection against ferroptocide-induced cell death: protection from ferroptocide- and TBHP-induced cell death

## CC(C)[C@H](NC(=O)c1ccc2ccccc2n1)C(=O)N[C@@H](CC(=O)O)C(=O)COc1c(F)cccc1F [Q-VD-OPh]
[2]
  protection against ferroptocide-induced cell death: does not protect against ferroptocide-induced cell death
[4]
  protection against ferroptocide-induced cell death: does not protect against ferroptocide-induced cell death

## CCOC(=O)c1ccc(NC2CCCCC2)c(N)c1 [ferrostatin-1]
[5]
  protection against ferroptocide-induced cell death: significantly protected against ferroptocide-induced cell death
[2]
  protection against ferroptocide-induced cell death: significantly protected against ferroptocide-induced cell death
[4]
  protection against ferroptocide-induced cell death: significantly protected against ferroptocide-induced cell death
[3]
  protection against ferroptocide-induced cell death: significantly protected against ferroptocide-induced cell death

## Cc1c(C)c2c(c(C)c1O)CCC(C)(C(=O)O)O2 (stereo not drawn) [trolox]
[5]
  protection against ferroptocide-induced cell death: significantly protected against ferroptocide-induced cell death
[2]
  protection against ferroptocide-induced cell death: significantly protected against ferroptocide-induced cell death
[4]
  protection against ferroptocide-induced cell death: significantly protected against ferroptocide-induced cell death
[3]
  protection against ferroptocide-induced cell death: significantly protected against ferroptocide-induced cell death

## C=CC(=C)[C@@H]1C[C@@H](OC(=O)CCl)[C@]2(C)[C@H](C)CC[C@]3(C[C@H](O)C(=O)[C@]32O)[C@H]1C [Compound P4]
[6]
  IC50: 6.7 µM
[7]
  hemolytic activity: no signs of hemolytic activity; also recorded: Lack of hemolytic activity
